Measurements taken from patent publication US10106757B2, “Ionic liquid, lubricant, and magnetic recording medium” (DEXERIALS CORPORATION, priority 2016, dated 2018).

What was measured:
[1] = Thermal stability by TG/DTA measurement; type: physicochemical; details: for Weight reduction temperatures higher than / thermal stability improved compared with Z-DOL: compared with Z-DOL (Comparative Example 5C); for Weight reduction temperatures higher than / thermal stability improved compared with Z-TETRAOL: compared with Z-TETRAOL (Comparative Example 6C); for Weight reduction temperature 5% / Weight reduction temperature 10% / Weight reduction temperature 20%: TG/DTA, 30-600° C., 10° C./min, air 200 mL/min
[2] = in acetonitrile; cited from earlier work
[3] = Solubility test in fluorine-based solvent Vertrel XF; type: physicochemical; details: 25° C., 0.2 parts by mass added to 100 parts, ultrasonic 5 minutes, left 1 day, visually observed
Procedure: (§1) To a predetermined amount of Vertrel XF or n-hexane, the ionic liquid, Z-DOL, or Z-TETRAOL was added. Ultrasonic waves were applied to the resultant mixture for 5 minutes, followed by leaving the mixture to stand for 1 day. The solubility was visually observed.
(§2) Specifically, 0.2 parts by mass of the ionic liquid, Z-DOL, or Z-TETRAOL was added to 100 parts by mass of Vertrel XF (25° C.). After applying ultrasonic waves to the resultant for 5 minutes, the resultant was left to stand for 1 day. Thereafter, the solubility was visually observed and evaluated based on the following evaluation criteria.
[Evaluation Criteria (Fluorine-Based Solvent)]
• 0.2% by mass or greater:
Soluble with addition of 0.2 parts by mass • Less than 0.2% by mass:
Insoluble with addition of 0.2 parts by mass
(§3) Note that, the solubility was visually observed, and it was judged as soluble when it was transparent. Moreover, it was judged as not soluble (insoluble) when it was opaque or insoluble components were observed.

[4] = Solubility test in hydrocarbon-based solvent n-hexane; type: physicochemical; details: 25° C., 0.5 parts by mass added to 100 parts, ultrasonic 5 minutes, left 1 day, visually observed
Procedure: as §1
as §2, with “In case of n-hexane, similarly, 0.5” for “Specifically, 0.2”, “n-hexane at 25° C.” for “Vertrel XF (25° C.).”
[Evaluation Criteria (Hydrocarbon-Based Solvent)]
• 0.5% by mass or greater:
Soluble with addition of 0.5 parts by mass • Less than 0.5% by mass:
Insoluble with addition of 0.5 parts by mass
as §3

Compound	Weight reduction temperatures higher than / thermal stability improved compared with Z-DOL [1]	Weight reduction temperatures higher than / thermal stability improved compared with Z-TETRAOL [1]	Weight reduction temperature 5% [1]	Weight reduction temperature 10% [1]	Weight reduction temperature 20% [1]	Solubility Vertrel XF [3]	Solubility n-hexane [4]	other results
CCCCCCCCCCCCn1cc[n+](CCCCCCCCCCCC)c1CCCCCCCCCCC.O=S(=O)([N-]S(=O)(=O)C(F)(F)C(F)(F)C(F)(F)C(F)(F)F)C(F)(F)C(F)(F)C(F)(F)C(F)(F)F	≥ 170 °C	≥ 90 °C	–	–	–	–	–	–
nonafluorobutanesulfonic acid-1,3-didodecyl-2-undecylimidazolium	≥ 130 °C	≥ 40 °C	287.9 °C	331.8 °C	378.4 °C	–	–	–
O=S(=O)(C(S(=O)(=O)C(F)(F)F)S(=O)(=O)C(F)(F)F)C(F)(F)F [(CF3SO2)3CH]	–	–	–	–	–	–	–	pKa [2]: −3.7
CCCCCCCCCCCCCCCCCCn1cc[n+](CCCCCCCCCCCCCCCCCC)c1CCCCCCCCCCCCCCCCC.O=S(=O)([N-]S(=O)(=O)C(F)(F)C(F)(F)C(F)(F)C(F)(F)F)C(F)(F)C(F)(F)C(F)(F)C(F)(F)F [Ex. 4A, bis(nonafluorobutanesulfonyl)imide-1,3-dioctadecyl-2-heptadecylimidazolium]	–	–	300.1 °C	337.3 °C	385.8 °C	< 0.2% by mass	≥ 0.5% by mass	Solubility Vertrel XF ([3]; listed as Example 4A): less than 0.2 % by mass; Solubility n-hexane ([4]; listed as Example 4A): ≥ 0.5 % by mass
nonafluorobutanesulfonic acid-1,3-dioctadecyl-2-heptadecylimidazolium	≥ 110 °C	≥ 40 °C	279.7 °C	310.9 °C	361.9 °C	–	–	–
CCCCCCCCCCCCn1cc[n+](CCCCCCCCCCCC)c1CCCCCCCCCCC.O=S(=O)([N-]S(=O)(=O)C(F)(F)C(F)(F)C(F)(F)C(F)(F)F)C(F)(F)C(F)(F)C(F)(F)C(F)(F)F [Ex. 2A, bis(nonafluorobutanesulfonyl)imide-1,3-didodecyl-2-undecylimidazolium]	–	–	335.7 °C	368.9 °C	395.7 °C	≥ 0.2% by mass	≥ 0.5% by mass	Solubility Vertrel XF ([3]; listed as Example 2A): ≥ 0.2 % by mass; Solubility n-hexane ([4]; listed as Example 2A): ≥ 0.5 % by mass
CCCCCCCCCCCCCCCCCCn1cc[n+](CCCCCCCCCCCCCCCCCC)c1CCCCCCCCCCCCCCCCC.O=S(=O)([N-]S(=O)(=O)C(F)(F)C(F)(F)C(F)(F)C(F)(F)F)C(F)(F)C(F)(F)C(F)(F)C(F)(F)F	≥ 140 °C	≥ 60 °C	–	–	–	–	–	–
CCCCCCCCCCCCCCCCCC[n+]1ccn(CCCC)c1.O=S1(=O)[N-]S(=O)(=O)C(F)(F)C(F)(F)C1(F)F [Comp. Ex. 2A, hexafluorocyclopropane-1,3-bis(sulfonyl)imide-1-butyl-3-n-octadecylimidazolium, reference compound]	–	–	–	–	–	< 0.2% by mass	< 0.5% by mass	–
